Structures can show the parent of a compound that is named as a salt.

The target in the experiment is T1, Acid phosphatase (Francisella tularensis subsp. tularensis (strain SCHU S4 / Schu 4), UniProt Q5NIC0).
T1 sequence (Q5NIC0 whole entry): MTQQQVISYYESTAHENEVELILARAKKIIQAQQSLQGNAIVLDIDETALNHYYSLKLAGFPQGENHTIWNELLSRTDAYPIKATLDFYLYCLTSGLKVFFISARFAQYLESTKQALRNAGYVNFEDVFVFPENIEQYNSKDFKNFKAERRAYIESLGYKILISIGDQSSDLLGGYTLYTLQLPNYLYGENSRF
In words: Inhibitor Screening Assay. The method, then: The inhibitor screening assays were performed in 96-well format with 1152 small molecules found in the Prestwick chemical library (Prestwick Chemical, France).
The Ki is the equilibrium dissociation constant of an inhibitor or competing ligand from its target. On to `O=c1c(O)c(-c2cc(O)c(O)c(O)c2)oc2cc(O)cc(O)c12`, for which the Ki was determined as 154 µM.
The same measure for `O=c1c(O)c(-c2ccc(O)cc2)oc2cc(O)cc(O)c12`: 190 µM.
On to `COc1ccc(CC2c3cc(OC)c(OC)cc3CC[N+]2(C)CCC(=O)OCCCCCOC(=O)CC[N+]2(C)CCc3cc(OC)c(OC)cc3C2Cc2ccc(OC)c(OC)c2)cc1OC` (stereo not drawn), for which the inhibition constant (Ki) amounted to 342 µM.
As to `O=C1OC(C(O)CO)=C(O)C1OP(=O)(O)O` [2-phospho-L-ascorbic acid], the Ki worked out at 0.32 µM.
The same measure for `CCN(CC)CCNC(=O)c1ccc(N)cc1` [4-amino-N-[2-(diethylamino)ethyl]benzamide;hydrochloride]: 14.8 µM; for `CC1(C)OC[C@@H]([C@H]2OC(=O)C(=O)C2O)O1` (stereo partly drawn) [(+)-5,6-O-Isopropylidene-L-ascorbic acid]: 3.27 µM.
`CCCCCCCCCCCCCCCC[N+](C)(C)CCN(Cc1ccc(OC)cc1)c1ncccn1` [SMR001233380]: the Ki stood at 0.59 µM.
For the compound `OC[C@H](O)c1oc(O)c(O)c1O` [ascorbic acid], the affinity corresponds to a Ki of 380 µM.
